Measured values from PMC13080969 (Journal of Chemical Information and Modeling, 2026).
Read-outs that look alike come from different tables or passages of the source.

How the values were obtained:
[1] = test system: L. infantum promastigotes; experiment: Promastigote assay (resazurin viability); format: cell-based, Leishmania infantum; conditions: for IC50: Leishmania infantum, 48 h, read-out: L. infantum IC50 Promastigotes; for Selectivity index Promastigotes: SI = CC50/IC50
Experimental: (§1) L. infantum promastigotes were grown at 26 °C in Schneider medium (Sigma), supplemented with 20% heat-inactivated fetal bovine serum (Sigma) and 1% penicillin-streptomycin (Sigma). To ensure maintenance of virulence, the parasites were serially passed through BALB/c mice. THP-1 cells were cultured in RPMI-1640 medium (Sigma-Aldrich), supplemented with 10% heat-inactivated SFB (Sigma) and 1% penicillin-streptomycin (Life Technologies), maintained at a density of 10^6 cells/mL, and incubated at 37 °C in a 5% CO2 atmosphere. For differentiation, THP-1 cells were seeded in 96-well culture plates at a concentration of 1 × 10^4 cells/well and treated with 100 ng/mL of […] (PMA, Sigma-Aldrich) and incubated for 48 h at 37 °C and 5% CO2. Cell viability was previously assessed using the Trypan Blue exclusion method. […] Differentiated THP-1 cells were washed with nonsupplemented RPMI-1640 and given fresh medium without PMA. The cells were rested for 24 h before further treatment.
To evaluate the effect of prioritized compounds on parasite viability, 4 × 10^6 promastigotes/mL were incubated in the presence of a series of 11 points (0.1% DMSO) for 48 h at 28 °C to a final volume of 200 μL in a 96-well microplate, with each condition tested in technical replicates (≥2 wells per condition). Next, 20 μL of resazurin solution (0.39 mM) was added to each well and incubated for 4 h, and then fluorescence was recorded (570 nmex/595 nmem) on a microplate reader SpectraMax M5 (Molecular Devices, Sunnyvale, CA). The IC50 values were determined in three independent experiments by fitting concentration–response curves using nonlinear regression with a four-parameter logistic (4PL) model in GraphPad Prism v10.

[2] = Cytotoxicity assay (resazurin); format: cell-based; conditions: human, THP-1 cells, pH 7.4
Experimental: as §1
THP-1 cells were cultured in 96-well plates at a density of 1 × 10^4 cells per well in 100 μL of RPMI 1640 medium supplemented with 10% heat-inactivated fetal bovine serum (FBS) and 25 mM HEPES (pH 7.4). Cultures were maintained at 37 °C in a humidified atmosphere containing 5% CO2. After 24 h of incubation, the test compounds were prepared in serial dilutions in complete medium, starting at a concentration of 200 μM. Subsequently, 100 μL of each diluted compound solution was added to the corresponding wells containing the cells, with each concentration tested in duplicate wells. Following a 72 h incubation period, resazurin solution (Sigma) was added to each well at a final concentration of 20 μM, and plates were incubated for an additional 4 h under the same conditions. Fluorescence was measured using a SpectraMax M5 microplate reader (Molecular Devices, Sunnyvale, CA, USA) with an excitation wavelength of 570 nm and an emission wavelength of 595 nm.

[3] = Parallel artificial membrane permeability assay (PAMPA); format: in vitro ADME; conditions: donor pH 6.5, acceptor pH 7.4, 5 h, 37 °C; for Papp at 5 h, 10 μM: PAMPA, read-out: PAMPA Pe
Experimental: (§2) ADME profiling was conducted using liquid chromatography coupled with tandem mass spectrometry (LC–MS/MS).
Each well is divided into two chambers, donor and acceptor, separated by a triple-layer phospholipid membrane constructed on a porous filter. Solutions of the compounds are prepared by diluting their respective stock solutions (10 mM in DMSO) in phosphate-buffered saline (PBS) at pH 6.5, yielding a final concentration of 10 μM (<1% DMSO, v/v). The solutions are then added to the donor portion of the plate (300 μL/well) in triplicate, while the acceptor portion received only PBS pH 7.4 (200 μL/well). The donor and acceptor portions are subsequently assembled, and the system is incubated for 5 h at 37 °C and 100 rpm. […] After the incubation period, samples are collected from the donor (10 μL) and acceptor (80 μL) wells and added to the analysis plate containing stop solution (300 μL) and PBS buffer pH 6.5 (60 μL). Final compound concentrations in the donor, acceptor, and Tzero wells are quantified by LC-MS/MS. The chromatogram for analysis was achieved on Supelco Ascentis express C18 column (3 cm × 2.1 mm, 5 μM). The mobile phases consisted of water +0.1% formic acid (A) and acetonitrile +0.1% formic acid (B). […] The results were used to calculate an effective permeability (Pe) value. All PAMPA assay was performed in triplicates.

[4] = Mouse liver microsomal stability assay; format: in vitro ADME; conditions: CD1, mouse, mouse liver microsomes, pH 7.4, 0.25 mg/mL protein; for microsomal CLint at 0.5 μM: read-out: MLM CLint; for half-life at 0.5 μM: read-out: MLM T 1/2
Experimental: as §2
Compounds were diluted to a final concentration of 0.5 μM and incubated with microsomal protein at 0.25 mg/mL in phosphate-buffered saline (PBS) at pH 7.4. The DMSO content in the incubation mixture was maintained below 1%. The metabolic reaction was initiated by introducing NADPH as a cofactor at a concentration of […]. Aliquots were taken at defined time intervals: 0 (immediately after NADPH addition), 5, 10, 20, 30, and 60 min. Reactions were halted by the addition of a quenching solvent consisting of a 1:1 mixture of acetonitrile and methanol containing an internal standard at 50 nM. Following quenching, samples were centrifuged at 3500 rpm for 30 min to pellet the precipitated microsomal proteins. The resulting supernatants were analyzed via LC–MS/MS. Quantification was performed based on the peak area ratio (PAR) of the analyte to internal standard, with the signal at time zero defined as 100%. The percentage of parent compound remaining at each time point was calculated accordingly. Using the plot of % remaining versus incubation time, the degradation rate constant (k) was determined via nonlinear regression. […] Chromatographic analysis was carried out using a Supelco Ascentis Express C18 column (3 cm × 2.1 mm, 5 μm particle size). The mobile phases were composed of water with 0.1% formic acid (A) and acetonitrile with 0.1% formic acid (B). […] All metabolic stability assays were conducted in triplicate.

[5] = Experimental determination of distribution coefficient (eLogD), chromatographic; format: physicochemical; conditions: Supelco Ascentis Express RP Amide HPLC column; pH 7.4, chromatographic retention method
Experimental: as §2
The eLogD was carried out using a chromatographic method based on the analyte retention times within a stationary phase. Separation was performed on a Supelco Ascentis Express RP Amide high-performance liquid chromatography (HPLC) column (5 cm × 2.1 mm, 2.7 μm particle size), utilizing a binary mobile phase system composed of 5% methanol in 10 mM ammonium acetate buffer at pH 7.4 (designated as solvent A), and pure methanol (solvent B). […] The injection volume for each sample was 5 μL. Test compounds were diluted to a concentration of 1.0 mg/mL in a 1:1 mixture of mobile phases A and B, containing an internal standard at 200 nM. Final DMSO concentration was kept below 2%. […] A calibration curve was generated by plotting the retention times of these standards against their corresponding eLogD values. The linear regression equation (y = mx + b) obtained from this curve was then used to calculate the eLogD of each test compound.

[6] = test system: intracellular L. infantum amastigotes; experiment: Intracellular assay in infected THP-1-derived macrophages; format: cell-based, Leishmania infantum; conditions: for IC50: 48 h; for Selectivity index Intracellular: SI = CC50/IC50
Experimental: as §1
THP-1 cells differentiated in 96-well culture plates were infected with promastigotes in the stationary phase at a ratio of 30 parasites: 1 cell for 4 h at 37 °C in a final volume of 100 μL. The noninternalized parasites were then removed by washing with RPMI-1640 medium. The compounds were diluted at concentrations of 200–0.7 μM in 100 μL of culture medium per well for serial dilution. Subsequently, 100 μL of the diluted compounds was added to the infected THP-1 cells and incubated for 48 h, with each condition tested in technical replicates (≥2 wells per condition). The number of intracellular parasites per 100 macrophages was counted using light microscopy. The infection rate was determined in relation to the mean of the control wells. The IC50 values were determined independently in three separate experiments by fitting concentration–response curves to a 4PL model in GraphPad Prism v10.

[7] = parameters: method as in PMID 39334981; conditions: clinical comparators; read-out: CC50 (cytotoxicity); cited from earlier work
[8] = test system: intracellular L. infantum amastigotes; parameters: method as in PMID 39334981; conditions: clinical comparators, cited from earlier work; for IC50: read-out: IC50 against intracellular L. infantum amastigotes
[9] = Leishmania infantum, Macrophage, read-out: L. infantum IC50 Intracellular, THP-1-derived macrophages infected with L. infantum, 48 h
[10] = THP-1-derived macrophages infected with L. infantum, read-out: L. infantum IC50 Intracellular
[11] = Leishmania infantum, Macrophage, THP-1-derived macrophages infected with L. infantum, read-out: L. infantum IC50 Intracellular

Row | SMILES | IC50 ([1]; resazurin) | CC50 at 72 h [2] | Selectivity index Promastigotes [1] | Selectivity index Intracellular [6] | also measured
1 | O=C(NCCc1cnc[nH]1)c1cc(-c2ccccc2)nc2ccccc12 [LC-67] | > 20 µM |  |  |  | 
2 | Cc1cc(F)ccc1N1CCC(NC(Cn2ccnc2)c2ccccc2)CC1 (centres unmarked) [LC-60] | 0.43 ± 0.05 µM | 40.8 ± 28.2 µM |  |  | Papp at 5 h, 10 μM [3]: 6.36 ×10⁻⁶ cm/s; microsomal CLint at 0.5 μM [4]: 120 µL/min/mg; half-life at 0.5 μM [4]: 0.386 h; chromatographic logD [5]: 4.45
3 | O=C1OCc2ccc(NC(=O)N3CCCCC3c3cccnc3)cc21 (centres unmarked) [LC-71] | 11.7 ± 2.86 µM | > 200 µM | >17.1 | >20.5 | IC50 [6, 9]: < 10 µM; IC50 [6, 10]: 9.76 ± 10.2 µM
4 | Cn1nnc2cc(NC(=O)N3CCCCC3c3cccnc3)ccc21 (centres unmarked) [LC-72] | > 20 µM |  |  |  | 
5 | CC(C)n1cc(C(=O)NC(c2ccc(Cl)cc2)c2cccnc2)cn1 (centres unmarked) [LC-73] | > 20 µM |  |  |  | 
6 | OC(COc1ccc(Br)cc1)Cn1ccnc1 (centres unmarked) [LC-75] | 10.5 ± 1.26 µM | > 100 µM | >9.52 | >14.8 | IC50 [6, 9]: < 10 µM; IC50 [6, 10]: 6.73 ± 3.27 µM
7 | Cc1ccc(C)c(-c2nc(NC(=O)c3ccncc3)sc2C)c1 [LC-68] | > 20 µM |  |  |  | 
8 | CCCCCCCCCCCCCCCCOP(=O)([O-])OCC[N+](C)(C)C [miltefosine] |  |  |  |  | CC50 [7]: 51.1 µM; SI [8]: 138; IC50 [8]: 0.37 µM
9 | CCCCC(NC1CCN(c2ccccc2F)CC1)c1cccnc1 (centres unmarked) [LC-61] | 0.037 ± 0.002 µM | 157 ± 20.7 µM |  |  | Papp at 5 h, 10 μM [3]: 4.86 ×10⁻⁶ cm/s; PAMPA Pe [3]: 4.86 10^–6 cm/s; chromatographic logD [5]: 4.07
10 | Fc1ccc(N2CCC(NCC(c3cccnc3)N3CCCCC3)CC2)cc1F (centres unmarked) [LC-62] | 9.62 ± 0.98 µM | > 100 µM | >10.4 | >24.7 | 
11 | CCc1nc(C)c(C(=O)NCC(c2cccnc2)N2CCCCC2)s1 (centres unmarked) [LC-59] | > 20 µM |  |  |  | 
12 | Cc1ccc(C)c(-c2nc(NC(=O)C3CC3)sc2C)c1 [LC-69] | > 20 µM |  |  |  | 
13 | O=C(Nc1ccc(Cl)cn1)N1CCCCC1c1cccnc1 (centres unmarked) [LC-74] | 0.49 ± 0.07 µM | > 200 µM |  |  | Papp at 5 h, 10 μM [3]: 10.8 ×10⁻⁶ cm/s; microsomal CLint at 0.5 μM [4]: 27.2 µL/min/mg; half-life at 0.5 μM [4]: 1.7 h; chromatographic logD [5]: 2.39
14 | Cc1ccccc1CN1CCC(CN(Cc2cccnc2)Cc2cc(CC(C)C)[nH]n2)CC1 [LC-58] | 7.85 ± 0.64 µM | 35 ± 5.2 µM | 4.45 | 4.48 | IC50 [6, 11]: 7.81 ± 4.13 µM
15 | O=C(C(c1cccnc1)N1CCOCC1)N1CCCN(Cc2ccc(F)cc2)CC1 (centres unmarked) [LC-65] |  | > 245 µM |  |  | IC50 [1]: 3.59 ± 0.53 µM; IC50 [6, 9]: > 55.5 µM
16 | Fc1cccc(CN(Cc2cccnc2)CC2CCCN(C3CCCCC3)C2)c1 (centres unmarked) [LC-63] |  | 32.9 ± 5.22 µM | 7.26 |  | IC50 [1]: 4.53 ± 0.8 µM; IC50 [6, 9]: 11.5 ± 24 µM
17 | C[C@@H]1[C@H](O)[C@@H](C)/C=C/C=C/C=C/C=C/C=C/C=C/C=C/[C@H](O[C@@H]2O[C@H](C)[C@@H](O)[C@H](N)[C@@H]2O)C[C@@H]2O[C@](O)(C[C@@H](O)C[C@@H](O)[C@H](O)CC[C@@H](O)C[C@@H](O)CC(=O)O[C@H]1C)C[C@H](O)[C@H]2C(=O)O [Amphotericin B] |  |  |  |  | CC50 [7]: 1.2 µM; SI [8]: 8.6; IC50 [8]: 0.14 µM
18 | O=C(Cc1ccccc1)NC(c1ccc(Cl)cc1)c1cccnc1 (centres unmarked) [LC-66] | 3.18 ± 0.72 µM | > 100 µM | >31.4 | >2.46 | IC50 [6, 11]: 40.5 ± 58.7 µM
19 | CC(C)N1CCC(C(=O)NC(c2ccc(Cl)cc2)c2cccnc2)CC1 (centres unmarked) [LC-70] | > 20 µM |  |  |  | 
20 | Cc1ccccc1CN1CCC(CN(Cc2cccnc2)Cc2nc(C(C)C)cs2)CC1 [LC-64] | 3.95 ± 0.42 µM | 27.8 ± 3.59 µM | 7.03 | 4.13 | IC50 [6, 11]: 6.72 ± 5.79 µM
